According to patent US6204284A, “Use of 1-(substitutedphenyl)-3-azabicyclo[3.1.0]hexanes for the treatment of chemical dependencies” (priority 1995, dated 2001):
Values joined by “and” are separate entries in the source; they are usually repeats but may differ in a detail not shown here. Equal entries are not always repeated. “Also recorded” adds a separate entry of the source.

Key:
Male Wistar rats = assay: Free-choice ethanol (6% v/v) vs tap water drinking, Part I; format: in vivo, rat; conditions: for Ethanol Intake / Ethanol Preference / Food Consumption / Total Fluid Intake: mean ± S.D.
Experimental: Male Wistar rats are presented with an everyday free-choice between a 6% (v/v) ethanol solution and tap water. Following a seven-day baseline period, which establishes a pattern of stable drinking, only those animals whose consumption is greater than 50% of their total fluid intake are given intraperitoneal injections of three drugs. In part I citalopram (positive control) a neuronal serotonin uptake inhibitor at a dose of 30 mg/kg, […], and 1-(3,4-dichlorophenyl)-3-azabicyclo[3.1.0]hexane hydrochloride, also a serotonin uptake inhibitor, at doses of 5, 10 and 20 mg/kg are given by intraperitoneal injection for seven days. In part II, animals are given intraperitoneal injections of diazepam at a dose of 10 mg/kg and again the positive control used is citalopram at 30 mg/kg. Treatment period for part II also is over a seven-day period. Following the seven-day treatment period, a post-treatment period which lasted for an additional seven days is conducted where the animals are presented with a free choice between ethanol and water in order to determine the rate of recovery of ethanol drinking. During baseline, drug treatment and post-treatment periods, ethanol consumption by the rats is calculated in terms of daily ethanol preference ratio (volume of ethanol per volume of total daily fluid intake) and in terms of daily absolute of ethanol ingested (g/kg body weight).
Two hundred (200) drug-naive male Wistar rats obtained from the Canadian Breeding Farm Laboratories in Charles River Canada are used. All animals weigh between 180-200 g at the beginning of the experiment.
All animals are individually housed in stainless steel cages, in a room regulated for constant temperature, humidity and a 12-hour light/dark cycle (7:00 a.m.-7:00 p.m.). Each cage is equipped with two calibrated glass Richter tubes to deliver the fluids (ethanol and water) to the animals. All animals are presented with a free choice between ethanol and tap water throughout the experiment. The drinking vessels are randomly reversed in order to avoid bias generated by a position preference in the animals. In addition, Purina Rat Chow is made available throughout the experiment on an ad libitum basis.
At approximately the same time every day, 1300 h, the volume in mls of ethanol and tap water consumed by each animal is recorded. All tubes are then removed from the cages, rinsed and refilled with the appropriate fluids, i.e., ethanol solution and tap water. Also, all animals are weighed and their corresponding body weights recorded. At this time, additional food is provided.
Drugs used in part I are dissolved in Ringers solution to form the required doses. Drugs used in part II are suspended in a vehicle which consists of a 2% pre-boiled starch solution containing 5% polyethylene glycol 400 and tween 80 (1 drop/10 ml vehicle). All drugs are administered intraperitoneally according to the schedule (see Treatment period).
Group 2--citalopram 30 mg/kg (n=10)
Group 3--1-(3,4-dichlorophenyl)-3-azabicyclo[3.1.0]hexane hydrochloride 5 mg/kg (n=10)
Group 4--1-(3,4-dichlorophenyl)-3-azabicyclo[3.1.0]hexane hydrochloride 10 mg/kg (n=10)
Group 5--1-(3,4-dichlorophenyl)-3-azabicyclo[3.1.0]hexane hydrochloride 20 mg/kg (n=10)
Post-treatment period:--Upon cessation of the drug treatment period, the animals are presented with a free choice between 6% ethanol and tap water for an additional 7 days in order to determine the rate of recovery of ethanol drinking.

[1] = test system: Norepinephrine (NE) reuptake in rat brain synaptosomes; assay: Inhibition of rat synaptosomal uptake of 3H-norepinephrine; format: biochemical; conditions: rat diencephalic-mid brain crude synaptosomes; 3H-NE 2×10^-8 M; Hill analysis
Text: (§1) Male Wistar rats weighing approximately 180-200 g are decapitated and their brains rapidly removed and dissected according to the method of Glowinski and Iversen. Glowinski, J. and Iversen, L. L., Regional studies of catecholamines in the rat brain I. The disposition of 3H-norepinephrine, 3H-dopamine and 3H-DOPA in various regions of the brain. J. Neurochem. 13:655-669, 1966.
(§2) Striatal tissues are pooled from three rat brains for the uptake of 3H-dopamine (3H-DA) and diencephalic-mid brain areas were used for the uptake of 3H-norepinephrine (3H-NE) and 3H-serotonin (3H-5HT). The tissues are immediately weighed and homogenized with a teflon-glass pestle homogenizer in 10 volumes of ice cold 0.32 M sucrose. The homogenates are centrifuged at 4° C. at 900×g for 10 minutes to remove nuclear particles and cellular debris. The supernatants are carefully withdrawn and transferred into clean test tubes kept in ice. Aliquots of these preparations containing crude synaptic nerve endings are used in subsequent uptake studies.
(§3) Amine uptake in crude synaptosomes is determined by a method essentially the same as that described by Snyder and Coyle, Snyder, S. H. and Coyle, J. T. Regional differences in 3H-norepinephrine and 3H-dopamine uptake into rat brain homogenates. J. Pharmacol. Exp. Ther. 165:78-86, 1969. Briefly, a 0.1 ml aliquot of the above tissue preparation is added to test tubes containing 3.7 ml of Krebs-Ringer phosphate buffer pH 7.4 with glucose (2 mg/ml), calcium chloride 0.024%, ascorbic acid (0.2 mg/ml) and nialamide (1.24×10^-5M). 1-(3,4-Dichlorophenyl)-3-azabicyclo[3.1.0]hexane hydrochloride at varying concentrations (0.01-2.5 μM) is added in a 0.1 ml volume. The incubation mixtures are agitated at 37° C. for 10 minutes under an atmosphere of 95% oxygen and 5% CO2 in a Dubnoff metabolic shaker to ensure irreversible inhibition of monoamine oxidase (MAO). After this initial pre-incubation period, the tubes are returned to the ice bath. 3H-DA, 3H-NE or 3H-5HT is added in a 0.1 ml volume to give a final concentration of labeled amine of 2×10^-8 M, and the incubation at 37° C. is continued for an additional 4 min. A set of tubes serving as control (uptake at 0° C.) is left in an ice bath. After the final incubation period, the samples are cooled in ice and then centrifuged at 4° C. at 10,000×g. The supernatant fluid is gently poured off from each tube. The surface of the pellet of each sample is washed with 5 ml of ice cold 0.9% sodium chloride which is then aspirated off without disturbing the pellet. The pellet is resuspended in a cintillation fluid ad radioactivity was determined. Protein content in the tissue samples is determined by the method of Lowry et al. Lowry, O. H., Rosebrough, N. J., Farr, A. L. and Randall, R. J. Protein measurement with the folin reagent. J. Biol. Chem. 193:265, 1951. The concentration of drug which inhibits the uptake of the labeled amine by 50% is determined by Hill analysis of the data.

[2] = test system: Serotonin (5-HT) reuptake in rat brain synaptosomes; assay: Inhibition of rat synaptosomal uptake of 3H-serotonin; format: biochemical; conditions: rat diencephalic-mid brain crude synaptosomes; 3H-5HT 2×10^-8 M; Hill analysis
Text: as §1, §2, §3

[3] = test system: Dopamine (DA) reuptake in rat brain synaptosomes; assay: Inhibition of rat synaptosomal uptake of 3H-dopamine; format: biochemical; conditions: rat striatal crude synaptosomes; 3H-DA 2×10^-8 M; Hill analysis
Text: as §1
Striatal tissues are pooled from three rat brains for the uptake of 3H-dopamine (3H-DA) and diencephalic-mid brain areas were used for the uptake of 3H-norepinephrine (3H-NE) and 3H-serotonin (3H-5HT). The tissues are immediately weighed and homogenized with a teflon-glass pestle homogenizer in 10 volumes of ice cold 0.32 M sucrose. […]
Amine uptake in crude synaptosomes is determined by a method essentially the same as that described by Snyder and Coyle, Snyder, S. H. and Coyle, J. T. Regional differences in 3H-norepinephrine and 3H-dopamine uptake into rat brain homogenates. […] The pellet is resuspended in a cintillation fluid ad radioactivity was determined. Protein content in the tissue samples is determined by the method of Lowry et al. Lowry, O. H., Rosebrough, N. J., Farr, A. L. and Randall, R. J. Protein measurement with the folin reagent. […] The concentration of drug which inhibits the uptake of the labeled amine by 50% is determined by Hill analysis of the data.

[4] = 5 mg/kg i.p. 7 days, Baseline period
[5] = 5 mg/kg i.p. 7 days, Post-Treatment period
[6] = 10 mg/kg i.p. 7 days, Baseline period
[7] = 10 mg/kg i.p. 7 days, Post-Treatment period
[8] = 20 mg/kg i.p. 7 days, Baseline period
[9] = 20 mg/kg i.p. 7 days, Baseline period, hydrochloride, 20 mg/kg
[10] = 20 mg/kg i.p. 7 days, Post-Treatment period
[11] = 20 mg/kg i.p. 7 days, Post-Treatment period, hydrochloride, 20 mg/kg

**Q.** `Cl.Clc1ccc(C23CNCC2C3)cc1Cl` (centres unmarked) [1-(3,4-dichlorophenyl)-3-azabicyclo[3.1.0]hexane hydrochloride] was tested. Which “Ethanol Intake” value (Male Wistar rats; [4]) did it give?
**A.** Its value is 5.02 ± 1.16 g/kg body weight.

**Q.** What about the “Ethanol Preference” value (Male Wistar rats; [4]) of the same molecule?
**A.** The value was 83.67 ± 14.58%.

**Q.** And the “Food Consumption” value (Male Wistar rats; [4])?
**A.** Its value is 19.74 ± 1.65 g/day.

**Q.** What about the “Total Fluid Intake” value (Male Wistar rats; [4]) of the same molecule?
**A.** Its value is 5.1937 ± 0.5254 mL/h/kg.

**Q.** What about the “Ethanol Intake” value (Male Wistar rats; [5]) of the same molecule?
**A.** The value was 4.86 ± 1.78 g/kg body weight.

**Q.** What about the “Ethanol Preference” value (Male Wistar rats; [5]) of the same molecule?
**A.** Its value is 82.39 ± 20.87%.

**Q.** What about the “Food Consumption” value (Male Wistar rats; [5]) of the same molecule?
**A.** Its value is 19.50 ± 1.41 g/day.

**Q.** What about the “Total Fluid Intake” value (Male Wistar rats; [5]) of the same molecule?
**A.** The value was 5.025 ± 0.9108 mL/h/kg.

**Q.** And the “Ethanol Intake” value (Male Wistar rats; [6])?
**A.** The value was 4.55 ± 0.90 g/kg body weight.

**Q.** And the “Ethanol Preference” value (Male Wistar rats; [6])?
**A.** Its value is 75.05 ± 16.53%.

**Q.** And the “Food Consumption” value (Male Wistar rats; [6])?
**A.** The value was 20.43 ± 1.55 g/day.

**Q.** And the “Total Fluid Intake” value (Male Wistar rats; [6])?
**A.** The value was 5.3292 ± 0.6617 mL/h/kg.

**Q.** And the “Ethanol Intake” value (Male Wistar rats; [7])?
**A.** The value was 2.99 ± 1.42 g/kg body weight.

**Q.** And the “Ethanol Preference” value (Male Wistar rats; [7])?
**A.** Its value is 55.90 ± 28.51%.

**Q.** What about the “Food Consumption” value (Male Wistar rats; [7]) of the same molecule?
**A.** Its value is 21.32 ± 1.96 g/day.

**Q.** What about the “Total Fluid Intake” value (Male Wistar rats; [7]) of the same molecule?
**A.** The value was 4.8087 ± 0.6483 mL/h/kg.

**Q.** What about the “Food Consumption” value (Male Wistar rats; [8]) of the same molecule?
**A.** The value was 20.28 ± 1.12 g/day.

**Q.** What about the “Total Fluid Intake” value (Male Wistar rats; [8]) of the same molecule?
**A.** The value was 4.84 ± 0.4304 mL/h/kg.

**Q.** What about the “Ethanol Intake” value (Male Wistar rats; [9]) of the same molecule?
**A.** Its value is 3.79 g/kg body weight and 3.80 ± 1.00 g/kg body weight.

**Q.** What about the “Ethanol Preference” value (Male Wistar rats; [9]) of the same molecule?
**A.** Its value is 67.94% and 67.94 ± 17.05%.

**Q.** And the “Food Consumption” value (Male Wistar rats; [10])?
**A.** Its value is 20.88 ± 2.08 g/day.

**Q.** What about the “Total Fluid Intake” value (Male Wistar rats; [10]) of the same molecule?
**A.** Its value is 4.4675 ± 0.4983 mL/h/kg.

**Q.** What about the “Ethanol Intake” value (Male Wistar rats; [11]) of the same molecule?
**A.** Its value is 3.04 g/kg body weight and 3.04 ± 1.34 g/kg body weight.

**Q.** What about the “Ethanol Preference” value (Male Wistar rats; [11]) of the same molecule?
**A.** The value was 58.66% and 58.66 ± 23.98%.

**Q.** What about the “Ethanol Preference” value (Male Wistar rats; 20 mg/kg i.p. 7 days, Treatment period, hydrochloride, 20 mg/kg) of the same molecule?
**A.** The value was 25.55% and 25.55 ± 17.28%.

**Q.** What about the “Voluntary ethanol consumption (overall statement)” value (Male Wistar rats; rats, 5, 10 and 20 mg/kg i.p. 7 days, hydrochloride) of the same molecule?
**A.** The value was “reduces ethanol intake and ethanol preferences; also recorded: significant effect in attenuating voluntary ethanol consumption”.

**Q.** And the IC50 [2]?
**A.** The IC50 was […].

**Q.** What about the IC50 [3] of the same molecule?
**A.** The IC50 was […].
